# In patent US20250263436A1, “BROAD-SPECTRUM ANTIVIRAL DRUG FOR ENTEROVIRUS, AND APPLICATION” (WUHAN INSTITUTE OF VIROLOGY, CHINESE ACADEMY OF SCIENCES, priority 2020, published 2025):
# Several values for one entry are separate records, joined by “and”; a condition that tells them apart may be missing. Equal values may be shown once.
# Key:
# EV71 = assay: Inhibition of EV71 in huh7 cells (viral RNA, qRT-PCR); assay type: cell-based, enterovirus 71 (EV71); conditions: anti-EV71 in huh7 cells
# Method: (1) Different cells were plated in a 24-well plate.
# (2) When the cells grew to a confluence of 70%-80%, the DMEM medium containing 10% serum was replaced with a DMEM medium containing 2% serum (the DMEM medium containing 2% serum was added in each well at an amount of 0.5 mL), and 5 μL of EV71 virus of 1×10^6 PFU/mL was added to each well.
# (3) After 1 h, different polypeptides (RQ or control TAT) with final concentrations of 0.3125 μM, 0.625 μM, 1.25 μM, 2.5 μM, and 5 μM were added respectively. The group without polypeptide added was used as a control.
# (4) The samples were collected 24 h after the infection of EV71 virus, and RNA was extracted with the total RNA extraction kit.
# (§1) (5) The supernatant was discarded, then 350 μL of TRK lysate was added to each well, and the plate was put on a shaker for 5 min.
# (§2) (6) 350 μL of 70% ethanol (DEPC) was added to each well, and then the plate was put on a shaker for 5 min.
# (§3) (7) The solution in each well was transferred to a RNA extraction column for 1 min of centrifugation at 12000 g.
# (§4) (8) The solution obtained in the recovery tube was reloaded on the column again for 1 min of centrifugation at 12000 g.
# (§5) (9) RNA washing buffer 1 was added in the column for 30 s of centrifugation at 12000 g. […]
# (14) 2 μL of RNA sample was subjected to a fluorescence quantitative experiment using the one step qRT-PCR kit.
# [1] = Toxicity assay in RD cells (CCK-8); assay type: cell-based; conditions: human, RD cells, 24 h
# Method: (§6) (1) Different cells were plated in a 96-well plate at 100 μL per well.
# (§7) (2) When the cells grew to a confluence of 70%-80%, the DMEM medium containing 10% serum was replaced with a DMEM medium containing 2% serum, and a certain concentration gradient of polypeptide RQ was added, so that the final concentrations of the polypeptide in the wells were 0.073242 μM, 0.146484 μM, 0.292969 μM, 0.585938 μM, 1.171875 μM, 2.34375 μM, 4.6875 μM, 9.375 μM, 18.75 μM, 37.5 μM, 75 μM, 150 μM, and 300 μM, respectively.
# (§8) (3) The samples were collected 24 h after the addition of the polypeptide, and then 10 μL of live cell detection reagent CCK-8 was added to each well and mixed well.
# (§9) (4) The plate was placed at 37° C. for 2 h.
# (§10) (5) The absorbance value at OD450 was detected by a microplate reader.
# (§11) (1) RD cells were plated in a 96-well plate at 100 μL per well.
# (§12) (2) When the cells grew to a confluence of 70%-80%, the DMEM medium containing 10% serum was replaced with a DMEM medium containing 2% serum, and B-RQ was added so that the final concentrations in the wells were 0.46 μM, 2.34 μM, 4.68 μM, 9.37 μM, 18.75 μM, 37.5 μM, 75 μM, and 150 μM.
# RD cells = assay: Toxicity assay in RD cells (CCK-8); assay type: cell-based; conditions: 24 h
# Method: as §6, §7, §8, §9, §10, §11, §12
# 293T cells = assay: Toxicity assay in 293T cells (CCK-8); assay type: cell-based; conditions: 24 h
# Method: as §6, §7, §8, §9, §10
# [2] = Toxicity assay in 293T cells (CCK-8); assay type: cell-based; conditions: human, 293T cells, read-out: Viability of Huh7 cell (%)
# Method: as §6, §7, §8, §9, §10
# Echo 11 = assay: Inhibition of Echo 11 in RD cells (viral RNA, qRT-PCR); assay type: cell-based; conditions: inhibiting Echo 11 in RD cells
# Method: (1) RD cells were plated in a 24-well plate.
# (2) When the cells grew to a confluence of 70%-80%, the DMEM medium containing 10% serum was replaced with a DMEM medium containing 2% serum (the DMEM medium containing 2% serum was added in each well at an amount of 0.5 mL), and 5 μL of Echo 11 virus of 1×10^6 PFU/mL was added to each well.
# (3) After 1 h, the polypeptides with final concentrations of 0.3125 μM, 0.625 μM, 1.25 μM, 2.5 μM, and 5 μM were added respectively. The group without polypeptide added was used as a control.
# (4) The samples were collected 24 h after the infection of Echo 11 virus, and RNA was extracted with the total RNA extraction kit.
# as §1, §2, §3, §4, §5
# (14) 2 μL of RNA sample was subjected to a fluorescence quantitative experiment using the one step qRT-PCR kit. […]
# [3] = Table 15 (third cell line of Example 9), RQ 0.073242 μM
smiles,measurement,setting,value
CC[C@H](C)[C@H](NC(=O)[C@H](C)NC(=O)[C@H](CO)NC(=O)[C@H](CCCNC(=N)N)NC(=O)[C@H](CC(N)=O)NC(=O)[C@H](CC(N)=O)NC(=O)[C@H](Cc1ccc(O)cc1)NC(=O)[C@H](CCC(=O)O)NC(=O)[C@H](CCCNC(=N)N)NC(=O)CNC(=O)[C@H](CO)NC(=O)CNC(=O)[C@H](CCCNC(=N)N)NC(=O)[C@H](CCCNC(=N)N)NC(=O)[C@H](CCCNC(=N)N)NC(=O)[C@H](CCC(N)=O)NC(=O)[C@H](CCCNC(=N)N)NC(=O)[C@H](CCCNC(=N)N)NC(=O)[C@H](CCCCN)NC(=O)[C@H](CCCCN)NC(=O)[C@H](CCCNC(=N)N)NC(=O)CNC(=O)[C@@H](N)Cc1ccc(O)cc1)C(=O)NCC(=O)N[C@@H](CC(N)=O)C(=O)N[C@H](C(=O)N[C@H](C(=O)N[C@@H](CCC(=O)O)C(=O)N[C@@H](C)C(=O)N[C@@H](CC(C)C)C(=O)N[C@@H](Cc1ccccc1)C(=O)N[C@@H](CCC(N)=O)C(=O)O)[C@@H](C)CC)[C@@H](C)O [RQ],IC50,EV71,410 nM
same,"viability at 24 h, 0.073242 µM","[1]; RQ 0.073242 μM, read-out: Viability of RD cell (%)",99.8%
same,"viability at 24 h, 0.146484 µM","[1]; RQ 0.146484 μM, read-out: Viability of RD cell (%)",99.2%
same,"viability at 24 h, 0.292969 µM","[1]; RQ 0.292969 μM, read-out: Viability of RD cell (%)",101%
same,"viability at 24 h, 0.585938 µM","[1]; RQ 0.585938 μM, read-out: Viability of RD cell (%)",98.9%
same,"viability at 24 h, 1.17188 µM","[1]; RQ 1.171875 μM, read-out: Viability of RD cell (%)",99.6%
same,"viability at 24 h, 2.34375 µM","[1]; RQ 2.34375 μM, read-out: Viability of RD cell (%)",98.8%
same,"viability at 24 h, 4.6875 µM","[1]; RQ 4.6875 μM, read-out: Viability of RD cell (%)",98.3%
same,"viability at 24 h, 9.375 µM","[1]; RQ 9.375 μM, read-out: Viability of RD cell (%)",98.4%
same,"viability at 24 h, 18.75 µM","[1]; RQ 18.75 μM, read-out: Viability of RD cell (%)",101%
same,"viability at 24 h, 37.5 µM","[1]; RQ 37.5 μM, read-out: Viability of RD cell (%)",101%
same,"viability at 24 h, 75 µM","[1]; RQ 75 μM, read-out: Viability of RD cell (%)",102%
same,"viability at 24 h, 150 µM","[1]; RQ 150 μM, read-out: Viability of RD cell (%)",8.73%
same,CC50 at 24 h,[1]; CCK-8,> 150 µM
same,Viability of RD cell (%),RD cells; RQ 0.073242 μM,100.3321% and 99.8893%
same,Viability of RD cell (%),RD cells; RQ 0.146484 μM,102.3247% and 99.94%
same,Viability of RD cell (%),RD cells; RQ 0.292969 μM,100.2214% and 99.17%
same,Viability of RD cell (%),RD cells; RQ 0.585938 μM,103.5978% and 102.7122%
same,Viability of RD cell (%),RD cells; RQ 1.171875 μM,99% and 99.23%
same,Viability of RD cell (%),RD cells; RQ 2.34375 μM,98.51%
same,Viability of RD cell (%),RD cells; RQ 4.6875 μM,99.45% and 100.8856%
same,Viability of RD cell (%),RD cells; RQ 9.375 μM,100.7196% and 102.6568%
same,Viability of RD cell (%),RD cells; RQ 18.75 μM,103.4317% and 102.4354%
same,Viability of RD cell (%),RD cells; RQ 37.5 μM,103.9852% and 103.5424%
same,Viability of RD cell (%),RD cells; RQ 75 μM,103.5978% and 102.9889%
same,Viability of RD cell (%),RD cells; RQ 150 μM,8.782% and 8.007%
same,Viability of 293T cells,293T cells; [3],100.4267% and 97.87%
same,Viability of 293T cells,"293T cells; Table 15, RQ 0.146484 μM",100.8922% and 100.9503%
same,Viability of 293T cells,"293T cells; Table 15, RQ 0.292969 μM",102.4631% and 100.8922%
same,Viability of 293T cells,"293T cells; Table 15, RQ 0.585938 μM",102.8123% and 101.6486%
same,Viability of 293T cells,"293T cells; Table 15, RQ 1.171875 μM",115.4383% and 103.5687%
same,Viability of 293T cells,"293T cells; Table 15, RQ 2.34375 μM",100.3685% and 102.8704%
same,Viability of 293T cells,"293T cells; Table 15, RQ 4.6875 μM",99.96% and 100.0776%
same,Viability of 293T cells,"293T cells; Table 15, RQ 9.375 μM",99.96% and 94.03%
same,Viability of 293T cells,"293T cells; Table 15, RQ 18.75 μM",99.9%
same,Viability of 293T cells,"293T cells; Table 15, RQ 37.5 μM",101.1249% and 102.9286%
same,Viability of 293T cells,"293T cells; Table 15, RQ 75 μM",98.97% and 99.5%
same,Viability of 293T cells,"293T cells; Table 15, RQ 150 μM",63.83% and 64.4104%
same,"Viability of 293T cells at 24 h, 0.073242 µM",[2]; [3],98.4%
same,"Viability of 293T cells at 24 h, 0.146484 µM","[2]; Table 15, RQ 0.146484 μM",101%
same,"Viability of 293T cells at 24 h, 0.292969 µM","[2]; Table 15, RQ 0.292969 μM",101%
same,"Viability of 293T cells at 24 h, 0.585938 µM","[2]; Table 15, RQ 0.585938 μM",100%
same,"Viability of 293T cells at 24 h, 1.17188 µM","[2]; Table 15, RQ 1.171875 μM",99.7%
same,"Viability of 293T cells at 24 h, 2.34375 µM","[2]; Table 15, RQ 2.34375 μM",99.1%
same,"Viability of 293T cells at 24 h, 4.6875 µM","[2]; Table 15, RQ 4.6875 μM",98.6%
same,"Viability of 293T cells at 24 h, 9.375 µM","[2]; Table 15, RQ 9.375 μM",99.7%
same,"Viability of 293T cells at 24 h, 18.75 µM","[2]; Table 15, RQ 18.75 μM",100%
same,"Viability of 293T cells at 24 h, 37.5 µM","[2]; Table 15, RQ 37.5 μM",102%
same,"Viability of 293T cells at 24 h, 75 µM","[2]; Table 15, RQ 75 μM",102%
same,"Viability of 293T cells at 24 h, 150 µM","[2]; Table 15, RQ 150 μM",66.6%
same,IC50,Echo 11,370 nM
